In one assay the target is T1, MCP-1 receptor B (CCR2B) (Homo sapiens, UniProt P41597).
T1 construct: expressed in transfected cells; membrane fragments
T1 sequence (P41597 1-360 isoform P41597-2): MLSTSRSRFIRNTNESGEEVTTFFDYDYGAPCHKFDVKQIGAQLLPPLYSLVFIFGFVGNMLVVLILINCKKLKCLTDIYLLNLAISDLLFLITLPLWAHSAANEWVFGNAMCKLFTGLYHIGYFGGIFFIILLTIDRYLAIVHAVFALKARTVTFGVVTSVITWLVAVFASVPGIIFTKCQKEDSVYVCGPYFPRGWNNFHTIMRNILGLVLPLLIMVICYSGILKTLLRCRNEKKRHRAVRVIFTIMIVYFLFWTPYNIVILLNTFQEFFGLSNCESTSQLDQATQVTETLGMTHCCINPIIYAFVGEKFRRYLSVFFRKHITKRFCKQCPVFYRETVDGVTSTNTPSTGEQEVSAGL
The experiment in a line: hMCP-1 receptor binding assay (125I-MCP-1, CHO-CCR2B cell membranes). The text has this: The MCP-1 receptor B (CCR2B) cDNA was cloned by PCR from THP-1 cell RNA using suitable oligonucleotide primers based on the published MCP-1 receptor sequences (Charo et al., 1994, Proc. Natl. Acad Sci. USA. 91, 2752). The resulting PCR products were cloned into vector PCR-II™ (In Vitrogen, San Diego, Calif.). Error free CCR2B cDNA was subcloned as a Hind III-Not I fragment into the eukaryotic expression vector pCDNA3 (In Vitrogen) to generate pCDNA3/CC-CKR2A and pCDNA3/CCR2B respectively.
Linearised pCDNA3/CCR2B DNA was transfected into CHO-K1 cells by calcium phosphate precipitation (Wigler et al., 1979, Cell, 16, 777). Transfected cells were selected by the addition of Geneticin Sulphate (G418, Gibco BRL) at 1 mg/ml, 24 hours after the cells had been transfected. Preparation of RNA and Northern blotting were carried out as described previously (Needham et al., 1995, Prot. Express. Purific., 6, 134). CHO-K1 clone 7 (CHO-CCR2B) was identified as the highest MCP-1 receptor B expressor.
CHO-CCR2B cells were grown in DMEM supplemented with 10% foetal calf serum. 2 mM glutamine. […]
^125I MCP-1 was prepared using Bolton and Hunter conjugation (Bolton et al. 1973. Biochem. J., 133, 529, Amersham International plc]. Equilibrium binding assays were carried out using the method of Ernst et al., 1994, J. Immunol., 152, 3541. Briefly, varying amounts of ^125I-labeled MCP-1 were added to 7 μg of purified CHO-CCR2B cell membranes in 100 μl of Binding Buffer. After 1 hour incubation at room temperature the binding reaction mixtures were filtered and washed 5 times through a plate washer (Brandel MLR-96T Cell Harvester) using ice cold Binding Buffer. Filter mats (Brandel GF/B) were pre-soaked for 60 minutes in 0.3% polyethylenimine prior to use. Following filtration individual filters were separated into 3.5 ml tubes (Sarstedt No. 55,484) and bound ^125I-labeled MCP-1 was determined (LKB 1277 Gammamaster). […] Non-specific binding was determined by the inclusion of a 200-fold molar excess of unlabelled MCP-1 in the reaction. […]

For assay [1], the system named is THP-1 cells. The experiment in a line: hMCP-1 mediated chemotaxis. It is filed as cell-based, human. The settings on record: THP-1 cell migration. As to the method:
In vitro chemotaxis assays were performed using the human monocytic cell line THP-1. Cell migration through polycarbonate membranes was measured by enumerating those passing through either directly by Coulter counting or indirectly by use of a colourimetric viability assay measuring the cleavage of a tetrazolium salt by the mitochondrial respirator chain (Scudiero D. A., et al. 1988, Cancer Res., 48, 4827-4833).
Chemoattractants were introduced into a 96-well microtitre plate which forms the lower well of a chemotaxis chamber fitted with a PVP-free 5 μm poresize polycarbonate adhesive framed filter membrane (NeuroProbe MB series, Cabin John, Md. 20818, USA) according to the manufacturer's instructions. The chemoattractant was diluted as appropriate in synthetic cell culture medium. […] The plate was incubated at 37° C. for 3 h and the absorbance of the soluble formazan product was read on a microtitre plate reader at 450 nm. The data was input into a spreadsheet, corrected for any random migration in the absence of chemoattractant and the average absorbance values, standard error of the mean, and significance tests were calculated, hMCP-1 induced concentration dependent cell migration with a characteristic biphasic response, maximal 0.5-1.0 nm. […]

The test system of assay [2] is THP-1 cells. The experiment in a line: MCP-1 mediated calcium flux in THP-1 cells. It is filed as cell-based, human. The settings on record: stimulation of THP-1 cells, approximate; read-out: EC50 for rise in [Ca2+]i. As to the method: The human monocytic cell line THP-1 was grown in a synthetic cell culture medium RPMI 1640 supplemented with 10% foetal calf serum. 6 mM glutamine and Penicillin-Streptomycin (at 50 μg streptomycin/mil, Gibco BRL). THP-1 cells were washed in HBSS (lacking Ca^2+ and Mg^2+)+1 mg/ml BSA and resuspended in the same buffer at a density of 3×10^6 cells/ml. The cells were then loaded with […] FURA-2/AM for 30 min at 37° C., washed twice in HBSS, and resuspended at 1×10^6 cells/ml. THP-1 cell suspension (0.9 ml) was added to a 5 ml disposable cuvette containing a magnetic stirrer bar and 2.1 ml of prewarmed (37° C.) HBSS containing 1 mg/ml BSA. 1 mM MgCl2 and 2 mM CaCl2. The cuvette was placed in a fluorescence spectrophotometer (Perkin Elmer, Norwalk, Conn.) and preincubated for 4 min at 37° C. with stirring. Fluorescence was recorded over 70 sec and cells were stimulated by addition of hMCP-1 to the cuvette after 10 sec. [Ca^2+]i was measured by excitation at 340 nm and 380 nm alternately and subsequent measurement of the intensity of the fluorescence emission at 510 nm.
where the Kd for FURA-2 Ca^2+ complex at 37° C. was taken to be 224 nm. […]

pEC50, pIC50, pKd: −log10 of the molar value. Like-named read-outs stand apart in the source and are kept apart here.

Usually pIC50 stands for the negative decadic logarithm of the IC50, by convention in mol/L. By pKd is commonly meant −log10 of the Kd, conventionally taken in molar units. Low values mean a large Kd, high ones a small Kd. The term pEC50 denotes the EC50 on a negative log10 scale, so that one unit is a factor of ten.

Consider “MCP-1: Human Monocyte Chemoattractant Protein-1, a C—C chemokine; ligand of the MCP-1 (CCR2) receptor”, for which, in the assay with MCP-1 receptor B (CCR2B) (membrane fragments from CHO-CCR2B cells, cold competition, read-out: IC50 of MCP-1 binding to CCR2B), the pIC50 was 9.96. The pKd in the assay with MCP-1 receptor B (CCR2B) (membrane fragments from CHO-CCR2B cells, equilibrium binding) is 9.92. Further, in the assay with THP-1 cells [1], the “concentration of maximal cell migration (biphasic response)” value is listed as 0.5-1.0 nm. For the same molecule, in the assay on THP-1 cells [2], the pEC50 is about 8.70.

Take `O=C(NC1CCS(=O)(=O)C1)c1c(C(=O)O)n(Cc2ccc(Cl)c(Cl)c2)c2ccccc12` (centres unmarked) [Compound 81]: the negative logarithm of the IC50 (pIC50) at MCP-1 receptor B (CCR2B) (competition with 100 pM labelled MCP-1, CHO-CCR2B membranes, read-out: IC50 in the hMCP-1 receptor binding assay) was 5.16.

Values taken from US6833387B1, “Chemical compounds” (AstraZeneca AB, priority 1999, dated 2004).
